Measurements taken from patent publication US7531575B2, “Method of modulating cellular activity and agents useful for same” (Eberhard-Karls-Universität Tübingin, priority 2002, dated 2009).

Experiments:
Format in all cases: cell-based, murine
[1] = test system: iNOS mRNA; test: iNOS mRNA Northern blot, LPS-stimulated N9 microglia; conditions: N9 cells, LPS 10 μg/mL, TNL 300 μM pretreatment 1 hr
Source text: (§1) TNL was a generous gift of Kissei Pharmaceuticals, LPC (Escherichia coli, 0127:BS), phorbol 12-myristate 13-acetate (PMA) and dexamethasone (DEX) were obtained from Sigma, BAY 11-7082 (BAY), NF-κB SN50 inhibitory peptide (SN50), GF 109203X (GFX) and rottlerin (ROT) were purchased from Biomol. PD098059 (PD) was obtained from Calbiochem. Purified murine interferon-γ (IFN-γ) was purchased from Roche Diagnostics. N9 murine microglial cells were a kind gift from P. Ricciardi-Castagnoli (Righi, M. et al. 1989 supra). Cells were cultured in Dulbecco's modified Eagle's medium (DMEM) supplemented with 10% fetal calf serum (FCS), 2 mM glutamine, penicillin (100 unit/mL) and streptomycin (100 μg/mL) and maintained at 37° in an atmosphere of 5% CO2. Viability was assessed by crystal violet staining.
RNA was isolated using the RNeasy™ kit (Qiagen). Total RNA (10 μg) was separated on 1.2% agarose gels and blotted onto nylon membranes (Amersham). The filters were hybridized according to standard procedures with a ^32P-labeled murine cDNA probe for iNOS. For the generation of the iNOS probe, N9 cells were stimulated with IFN-γ (200 unit/mL) for 24 hr. […]

[2] = test system: inhibitory-κB (I-κB); test: phospho-IκBα immunoblot, LPS-stimulated N9 microglia; conditions: N9 cells, 1 hr, TNL pre-incubation 1 hr
Source text: as §1
(§2) For the preparation of whole cell lysates, the cells were lysed in 0.1 M Tris-HCl (pH 7.2) containing 0.1% NP40, 0.1 mM EDTA and 5 μg/mL phenylmethylsulphonyl fluoride. Twenty micrograms protein was separated by 10-12% SDS-PAGE and electroblotted on nitrocellulose membrane. Equal loading was controlled by Ponceau S staining. […]

[3] = test system: NF-κB; test: NF-κB reporter assay, LPS-stimulated N9 microglia; conditions: N9 cells, LPS 10 μg/mL 4 hr, TNL pre-incubation 1 hr
Method: NF-κB reporter gene activity was assayed as previously described (Platten, M. et al. 2001 supra). Briefly, 8×10^3 cells/well were seeded in a 96-well plate and transfected with an NF-κB cis reporter gene plasmid (PathDetect No. 219077, Stratagene) encoding firefly luciferase using FuGene™ transfection reagent (Roche). pFC-MEKK (Stratagene) and pcDNA3 plasmids cotransfected with the reporter plasmid served as positive and negative controls. After freezing and thawing, the cells were lysed in 40 mM Tricine (pH 7.8) containing 50 mM NaCl, 2 mM EDTA, 1 mM MgSO4, 5 mM DTT and 1% Triton X-100. Lysates were assayed using Luciferase assay reagent (40 mM Tricine, pH 7.8, containing 10 mM MgSO4, 0.5 mM EDTA, 10 mM DTT, 0.5 mM coenzyme A, […] and 0.5 mM beetle luciferine). Luminescence was measured in LumiNunc™ plates (Nunc) in a LumimatPlus™ (EG&G Berthold). Values are expressed as relative light units (RLU).

[4] = test system: ERK-1; test: phospho-ERK-1/2 immunoblot, LPS-stimulated N9 microglia: ERK-1; conditions: N9 cells, LPS 10 μg/mL 10 min, TNL pre-incubation 1 hr
Source text: as §1, §2

[5] = test system: PKCδ; test: PKCδ translocation by immunocytochemistry in N9 microglia; conditions: N9 cells, PMA 100 nM, TNL 300 μM
Method: Cells grown on glass coverslips were serum-starved for 16 hr, kept in Krebs Ringer HEPES buffer (125 mM NaCl, 5 mM KCl, 1.2 mM MgSO4, 2 mM CaCl2, 1.2 mM KH2PO4, 6 mM glucose, 25 mM HEPES, pH 7.4) for 1 hr and left untreated or treated with PMA (100 nM) without or with pre-incubation (1 hr) with TNL (300 μM). After fixation in ice-cold (−20′) methanol for 20 min, the cells were washed with PBS and incubated for 15 min with 0.1% NaBH4 and 0.1 M glycine in PBS to block autofluorescence. Nonspecific antibody binding was blocked for 45 min with PBG (PBS with 0.045% fish gelatin) containing 5% normal goat serum and 1% bovine serum albumin. Incubation with anti-PKCδ antibody was carried out for 24 hr at 4° after dilution in PBG containing 5% normal goat serum. After four washes with PBG, primary antibody binding was detected with an isotype-specific secondary antibody conjugated with Alexa™546 fluorescent dye. The coverslips were mounted in PermaFluor (Immunotech). Localization of the proteins was examined using confocal laser microscopy (Leica).

Q: Which “LPS induction of iNOS mRNA” value ([1]; 4 and 8 hr) does the source give for COc1ccc(/C=C/C(=O)Nc2ccccc2C(=O)O)cc1OC [tranilast, 2-[[3-(3,4-dimethoxyphenyl)-1-oxo-2-propenyl]amino]benzoic acid] here?
A: The value was “unaffected”.

Q: What about the “LPS induction of iNOS mRNA” value ([1]; 16 hr) of the same compound?
A: The value was “no further increase”.

Q: What about the “LPS-mediated phosphorylation of I-κB” value [2] of the same compound?
A: The value was “did not suppress”.

Q: And the “LPS-mediated NF-κB reporter gene activity” value [3]?
A: The value was “did not suppress”.

Q: What about the “phospho-ERK-1 protein level after LPS” value [4] of the same compound?
A: Its value is “remained unchanged”.

Q: And the “PMA-induced translocation of PKCδ from cytosol to nucleus” value [5]?
A: Its value is “abolished”.
